Test results: patent US20240252527A9, “NUCLEOSIDE DRUGS FOR THE TREATMENT OR PREVENTION OF CORONAVIRUS INFECTION AND THEIR USES” (Miracure Biotechnology Limited, priority 2022, published 2024)
Where two headings read alike, the source gives them in different places.

Legend:
229E = 229E MRC5 CPE assay (cytopathic experiment); type: cell-based, coronavirus 229E (HCoV-229E)
OC43 = OC43 Huh7 CPE assay (cytopathic experiment); type: cell-based, coronavirus OC43 (HCoV-OC43); conditions: for EC50: read-out: OC43 Huh7 CPE assay (μM) EC50; for EC90: read-out: OC43 Huh7 CPE assay (μM) EC90
Method in brief: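 Cells seeded overnight, then two-fold diluted compound added with virus; viability read by CellTiter-Glo after 3 days (229E, MRC5 cells) or 7 days (OC43, Huh7 cells). EC50/EC90 from % inhibition of virus-induced CPE; CC50 from parallel uninfected cytotoxicity runs, by nonlinear fitting.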

[1] = Human coronavirus 229E, MRC5, 72 h, read-out: 229E MRC5 CPE assay (μM) EC50
[2] = Human coronavirus 229E, MRC5, 72 h, read-out: 229E MRC5 CPE assay (μM) EC90
[3] = Betacoronavirus 1, OC43, Huh-7, 168 h
[4] = Betacoronavirus 1, Huh-7, 168 h, Huh7 cells, OC43 virus, 7 days, Cell Titer Glo

Compound	EC50 (229E; [1])	EC90 (229E; [2])	EC50 (OC43; [3])	EC90 (OC43; [3])	EC50 (229E; Human coronavirus 229E, MRC5, 72 h; read-out: 229E MRC5 CPE assay (μM) EC50)	EC90 (229E; Human coronavirus 229E, MRC5, 72 h; read-out: 229E MRC5 CPE assay (μM) EC90)	EC50 (OC43; [4])	EC90 (OC43; [4])
N#C[C@@]1(c2ccc3c(N)ncnn23)O[C@@H]2CO[P@@](=O)(OCOC(=O)CCCc3ccccc3)O[C@H]2[C@H]1O [Compound 264]	< 0.1 µM	0.1 to 0.5 µM	> 0.5 µM	> 0.5 µM				
N#C[C@@]1(c2ccc3c(N)ncnn23)O[C@H](COP(=O)(OCOC(=O)CCCc2ccccc2)OCOC(=O)CCCc2ccccc2)[C@@H](O)[C@H]1O [Compound 266]	> 0.5 µM	> 0.5 µM	> 0.5 µM	> 0.5 µM				
CC(C)OC(=O)C(C)(C)N[P@@](=O)(OCOC(=O)C1CCCC1)OC[C@H]1O[C@@](C#N)(c2ccc3c(N)ncnn23)[C@H](O)[C@@H]1O [Compound 267]	> 0.5 µM	> 0.5 µM	> 0.5 µM	> 0.5 µM				
CC(C)OC(=O)C(C)(C)N[P@](=O)(OCOC(=O)C1CCCC1)OC[C@H]1O[C@@](C#N)(c2ccc3c(N)ncnn23)[C@H](O)[C@@H]1O [Compound 268]	> 0.5 µM	> 0.5 µM	> 0.5 µM	> 0.5 µM				
CC(C)OC(=O)C(C)(C)N[P@@](=O)(OCOC(=O)CCCc1ccccc1)OC[C@H]1O[C@@](C#N)(c2ccc3c(N)ncnn23)[C@H](O)[C@@H]1O [Compound 269]	> 0.5 µM	> 0.5 µM	> 0.5 µM	> 0.5 µM				
CC(C)OC(=O)C(C)(C)N[P@](=O)(OCOC(=O)CCCc1ccccc1)OC[C@H]1O[C@@](C#N)(c2ccc3c(N)ncnn23)[C@H](O)[C@@H]1O [Compound 270]	> 0.5 µM	> 0.5 µM	> 0.5 µM	> 0.5 µM				
N#C[C@@]1(c2ccc3c(N)ncnn23)O[C@H](COP(=O)(OCOC(=O)OC2CCC2)OCOC(=O)OC2CCC2)[C@@H](O)[C@H]1O [Compound 276]	0.1 to 0.5 µM	> 0.5 µM	0.1 to 0.5 µM	> 0.5 µM				
CCC(CC)COC(=O)[C@H](C)N[P@](=O)(OC[C@H]1O[C@@](C#N)(c2ccc3c(N)ncnn23)[C@H](O)[C@@H]1O)Oc1ccccc1 [Remdesivir, reference compound]					< 0.1 µM	0.1 to 0.5 µM	< 0.1 µM	< 0.1 µM
